# Assay results from ChEMBL document CHEMBL1649556, “Lack of antimicrobial activity by the antiretroviral drug nevirapine against common bacterial pathogens” (2009).
# Calls of active or inactive are those of the source. No cut-off for these calls is given here.
# Key:
# [1] = system: Human immunodeficiency virus; assay: Antiviral activity against HIV infected in human PBMC assessed as decrease in viral p24 antigen production at 0.25 to 4 ug/ml after 14 days by ELISA; type: functional, organism-based
# Streptococcus pneumoniae [2] = assay: Antibacterial activity against Streptococcus pneumoniae ATCC 49619 after 18 to 24 hrs by agar dilution method; type: functional
# Haemophilus influenzae [3] = assay: Antibacterial activity against Haemophilus influenzae […] after 18 to 24 hrs by agar dilution method; type: functional
# Escherichia coli [4] = assay: Antibacterial activity against Escherichia coli ATCC 25922 after 18 to 24 hrs by agar dilution method; type: functional
# Staphylococcus aureus [5] = assay: Antibacterial activity against Staphylococcus aureus ATCC 29213 after 18 to 24 hrs by agar dilution method; type: functional
# Shigella sonnei = assay: Antibacterial activity against Shigella sonnei […] after 18 to 24 hrs by agar dilution method; type: functional
# [6] = Antibacterial activity against Salmonella group B ATCC 31194 after 18 to 24 hrs by agar dilution method; type: functional; settings: Salmonella sp. 'group B'
# Streptococcus pneumoniae [7] = assay: Antibacterial activity against Streptococcus pneumoniae after 18 to 24 hrs by agar dilution method; type: functional
# Haemophilus influenzae [8] = assay: Antibacterial activity against Haemophilus influenzae after 18 to 24 hrs by agar dilution method; type: functional
# Escherichia coli [9] = assay: Antibacterial activity against Escherichia coli after 18 to 24 hrs by agar dilution method; type: functional
# Staphylococcus aureus [10] = assay: Antibacterial activity against Staphylococcus aureus after 18 to 24 hrs by agar dilution method; type: functional
# Salmonella = assay: Antibacterial activity against Salmonella group D after 18 to 24 hrs by agar dilution method; type: functional
# Shigella flexneri = assay: Antibacterial activity against Shigella flexneri group B after 18 to 24 hrs by agar dilution method; type: functional
smiles,measurement,setting,value
Cc1ccnc2c1NC(=O)c1cccnc1N2C1CC1 [NEVIRAPINE],inhibition,[1],Active
same,MIC,Streptococcus pneumoniae [2],4 µg/mL
same,MIC,Haemophilus influenzae [3],4 µg/mL
same,MIC,Escherichia coli [4],4 µg/mL
same,MIC,Staphylococcus aureus [5],4 µg/mL
same,MIC,Shigella sonnei,4 µg/mL
same,MIC,[6],4 µg/mL
same,MIC,Streptococcus pneumoniae [7],4 µg/mL
same,MIC,Haemophilus influenzae [8],4 µg/mL
same,MIC,Escherichia coli [9],4 µg/mL
same,MIC,Staphylococcus aureus [10],4 µg/mL
same,MIC,Salmonella,4 µg/mL
same,MIC,Shigella flexneri,4 µg/mL
